Common to all, as to format: cell-based
Experiment [1] has as its target T1, human P2X3 receptor (Homo sapiens, UniProt P56373).
T1 sequence (P56373 1-397): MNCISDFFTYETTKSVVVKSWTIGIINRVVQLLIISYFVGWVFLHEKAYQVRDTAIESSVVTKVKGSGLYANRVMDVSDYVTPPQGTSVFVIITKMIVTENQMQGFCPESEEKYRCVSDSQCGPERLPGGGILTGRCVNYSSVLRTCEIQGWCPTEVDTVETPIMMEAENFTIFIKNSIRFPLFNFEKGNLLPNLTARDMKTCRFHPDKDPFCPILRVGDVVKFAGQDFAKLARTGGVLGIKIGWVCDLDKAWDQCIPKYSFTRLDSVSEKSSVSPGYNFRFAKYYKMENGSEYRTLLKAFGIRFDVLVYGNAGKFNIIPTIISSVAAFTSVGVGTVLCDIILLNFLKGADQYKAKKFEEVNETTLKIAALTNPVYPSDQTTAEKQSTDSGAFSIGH
The experiment is described as follows: Intracellular calcium measurement to assess antagonist activity at human P2X3 receptors (hP2X3 CHO), photina luminescence. Particulars: column 2), CHO cells, agonist α,β-methylene-ATP at EC50. Also on record: expressed in transfected cells; host or cells: Chinese hamster ovary (CHO) cells. On the procedure:
2) Intracellular Calcium Measurement to Assess Antagonist Activity at Human P2X3 Receptors (hP2X3 CHO)
The determination of antagonistic activity at the P2X3 receptor of the compounds of the invention was performed by use of a recombinant cell line. This cell line derives originally from the Chinese hamster ovary (CHO) cell line (Tjio J. H.; Puck T. T., 1958, J. Exp. Med. 108: 259-271). The cell line is stably transfected with the human P2X3 receptor and a calcium-sensitive photoprotein, mitochondrial photina, which, after reconstitution with the cofactor coelenterazine, emits light in dependence of calcium binding [Bovolenta S, Foti M, Lohmer S, Corazza S., J Biomol Screen. 2007 August; 12(5):694-704]. The strength of the photina luminescence signal corresponds to the level of receptor activation upon agonist binding. An inhibitor would decrease the signal depending on its potency and concentration. Bioluminescence was detected using a suitable luminometer [Milligan G, Marshall F, Rees S, Trends in Pharmacological Sciences 17,235-237 (1996)].
On the day before the assay, the cells were plated out in culture medium (DMEM/F12 (PAN, P04-41451), 10% FCS) in 384-well microtiter plates and kept in a cell incubator (96% humidity, 5% v/v CO2, […]). On the day of the assay medium was replaced by 2 mM Ca-tyrode buffer containing 5 μg/ml coelenterazine. Plates were incubated for 3 hours at 37° C. (96% humidity, 5% v/v CO2). […] The resulting light signal was measured immediately in the luminometer.

Another experiment deals with T2, human P2X2/3 receptors (Homo sapiens, UniProt P56373+Q9UBL9).
T2 construct: expressed in transfected cells; host or cells: human astrocytoma 1321N1 (1312N1 [sic])
T2 sequence (P56373 1-397): T1 sequence (P56373 1-397)
T2 sequence (Q9UBL9 1-471): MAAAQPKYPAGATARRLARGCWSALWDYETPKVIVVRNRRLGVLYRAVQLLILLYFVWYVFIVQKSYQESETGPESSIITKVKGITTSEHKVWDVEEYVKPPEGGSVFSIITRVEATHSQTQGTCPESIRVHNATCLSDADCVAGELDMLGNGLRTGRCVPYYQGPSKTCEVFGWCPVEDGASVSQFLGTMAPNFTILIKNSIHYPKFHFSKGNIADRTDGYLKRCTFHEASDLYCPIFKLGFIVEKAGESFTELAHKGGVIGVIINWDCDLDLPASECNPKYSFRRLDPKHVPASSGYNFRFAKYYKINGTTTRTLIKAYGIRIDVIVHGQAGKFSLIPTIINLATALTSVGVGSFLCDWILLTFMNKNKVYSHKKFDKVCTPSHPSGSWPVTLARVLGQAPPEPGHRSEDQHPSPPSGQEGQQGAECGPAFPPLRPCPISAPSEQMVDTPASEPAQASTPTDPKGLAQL
The experiment is described as follows: Intracellular calcium measurement, antagonist activity at human P2X2/3 receptors (hP2X23 1321N1), Fluo8. Particulars: for IC50: column 4); 1321N1 cells, human P2X2/3, Fluo8, agonist ATP at EC50; read-out: 4) hP2X2/3 IC50 [nM] (1321N1); for hP2X23/hP2X3* Selectivity (1321N1): ratio of column 4) hP2X2/3 to column 3) hP2X3, 1321N1. Here is the method:
(§1) 3) And 4) Intracellular Calcium Measurement to Compare Antagonist Activity at Human P2X3 Receptors (hP2X3 1321N1) and at Human P2X2/3 Receptors (hP2X23 1321N1)
(§2) The comparison of antagonistic activity at the P2X3 versus the P2X2/3 receptor of the compounds of the invention were performed by use of recombinant cell lines. These cell lines derived originally from the human astrocytoma cell line […] (Macintyre E H, Pontén J, Vatter A E. Acta Pathol Microbiol Scand A. 1972; 80(2):267-83). The cell lines are stably transfected with the human P2X3 receptor forming homotrimeric P2X3 receptors or are co-transfected with P2X2 and P2X3 forming heterotrimeric P2X2/3 receptors. Stimulation of the receptors with the agonist ATP leads to a conformational change of the receptors and influx of extracellular calcium ions through the open ion channel. The cytoplasmatic calcium transient is detected via the calcium sensitive dye Fluo8. The strength of Fluo8 fluorescence signal corresponds to the level of receptor activation. An inhibitor would decrease the signal depending on its potency and concentration. Fluorescence was measured by use of a suitable fluorescence reader.
(§3) On the day before the assay, the cells were plated in culture medium (DMEM high glucose, 10% FCS, 1% MEM non-essential amino acids, 4 mM Glutamax) in 384-well poly-D-lysine coated microtiter plates and kept in a cell incubator (96% humidity, 5% v/v CO2, 37° C.). On the day of the assay medium was exchanged by Fluo8 containing buffer and incubated for 60 minutes. Test compounds were added at various concentrations and plates were incubated for 10 minutes. In the fluorescence reader a 3 seconds baseline measurement was performed and the agonist ATP was applied at EC50 concentration of the respective receptor during constant fluorescence measurement for 120 seconds.
A general note: Calcium assays in cells follow changes in intracellular calcium, usually with a dye or a luminescent sensor.

The target in experiment [2] is T1, human P2X3 receptor. The experiment is described as follows: Intracellular calcium measurement, antagonist activity at human P2X3 receptors (hP2X3 1321N1), Fluo8. Also on record: expressed in transfected cells; host or cells: human astrocytoma 1321N1 (1312N1 [sic]). The following applies: column 3); 1321N1 cells, human P2X3, Fluo8, agonist ATP at EC50. Here is the method: as §1, §2, §3

For the compound `CCc1cc2n(CC(=O)Nc3ccc(F)cn3)c3c(c(=O)n2n1)CN(C1CCOC1)C3=O` (racemic) [Example 71, 2-{2-ethyl-5,8-dioxo-6-[(±)-tetrahydrofuran-3-yl]-5,6,7,8-tetrahydro-4H-pyrazolo[1,5-a]pyrrolo[3,4-d]pyrimidin-4-yl}-N-(5-fluoropyridin-2-yl)acetamide], the IC50 on human P2X3 receptor [1] was 111 nM; at human P2X2/3 receptors, over 23000 nM; on human P2X3 receptor [2], 125 nM. Moreover, the “hP2X23/hP2X3* Selectivity (1321N1)” value on human P2X2/3 receptors was over 184.

Regarding `CCc1cc2n(CC(=O)Nc3ccc(F)cn3)c3c(c(=O)n2n1)CN(CC1CCCO1)C3=O` (racemic) [Example 77, 2-{2-ethyl-5,8-dioxo-6-[(±)-tetrahydrofuran-2-ylmethyl]-5,6,7,8-tetrahydro-4H-pyrazolo[1,5-a]pyrrolo[3,4-d]pyrimidin-4-yl}-N-(5-fluoropyridin-2-yl)acetamide], the IC50 came to 102 nM on human P2X3 receptor [1], 9050 nM at human P2X2/3 receptors and 185 nM on human P2X3 receptor [2]. Moreover, on human P2X2/3 receptors, the “hP2X23/hP2X3* Selectivity (1321N1)” value is reported as 49.

As to `CCc1cc2n(CC(=O)Nc3ccc(F)cn3)c3c(c(=O)n2n1)CN(C(C)COCc1ccccc1)C3=O` (racemic) [Example 121, 2-{6-[(±)-1-(benzyloxy)propan-2-yl]-2-ethyl-5,8-dioxo-5,6,7,8-tetrahydro-4H-pyrazolo[1,5-a]pyrrolo[3,4-d]pyrimidin-4-yl}-N-(5-fluoropyridin-2-yl)acetamide], the IC50 at human P2X3 receptor [1] was found to be 51 nM; on human P2X2/3 receptors, 1160 nM.

Take `CC(C)N1Cc2c(n(CC(=O)Nc3ccc(F)cn3)c3cc(C4CCN(C(=O)OC(C)(C)C)C4)nn3c2=O)C1=O` (racemic) [Example 226, tert-butyl(±)-3-[4-{2-[(5-fluoropyridin-2-yl)amino]-2-oxoethyl}-5,8-dioxo-6-(propan-2-yl)-5,6,7,8-tetrahydro-4H-pyrazolo[1,5-a]pyrrolo[3,4-d]pyrimidin-2-yl]pyrrolidine-1-carboxylate]: the IC50 came to 22 nM at human P2X3 receptor [1], 3050 nM on human P2X2/3 receptors and 39 nM at human P2X3 receptor [2]. Moreover, the “hP2X23/hP2X3* Selectivity (1321N1)” value at human P2X2/3 receptors was found to be 78.

For `CC(C)N1Cc2c(n(CC(=O)Nc3ccc(F)cn3)c3cc(C4CCC(=O)N4C)nn3c2=O)C1=O` (racemic) [Example 231, N-(5-fluoropyridin-2-yl)-2-{2-[(±)-1-methyl-5-oxopyrrolidin-2-yl]-5,8-dioxo-6-(propan-2-yl)-5,6,7,8-tetrahydro-4H-pyrazolo[1,5-a]pyrrolo[3,4-d]pyrimidin-4-yl}acetamide], the IC50 on human P2X3 receptor [1] was 95 nM; on human P2X2/3 receptors, over 23500 nM.

Take `CCc1cc2n(CC(=O)Nc3ccc(F)cn3)c3c(c(=O)n2n1)CN(Cc1ccc(C)nc1)C3=O` [Example 117]: the IC50 at human P2X3 receptor [1] worked out at 27 nM; at human P2X2/3 receptors, 6150 nM.

Turning to `CCc1cc2n(CC(=O)Nc3ccc(F)cn3)c3c(c(=O)n2n1)CN(C(C)(C)COCc1ccccc1)C3=O` [Example 120, 2-{6-[1-(benzyloxy)-2-methylpropan-2-yl]-2-ethyl-5,8-dioxo-5,6,7,8-tetrahydro-4H-pyrazolo[1,5-a]pyrrolo[3,4-d]pyrimidin-4-yl}-N-(5-fluoropyridin-2-yl)acetamide], the IC50 turned out to be 5 nM at human P2X3 receptor [1] and 345 nM at human P2X2/3 receptors.

With `Cc1ccc(-c2cc3n(CC(=O)Nc4ccc(F)cn4)c4c(c(=O)n3n2)CN([C@H]2CCOC2)C4=O)nc1` [Example 161, N-(5-fluoropyridin-2-yl)-2-{2-(5-methylpyridin-2-yl)-5,8-dioxo-6-[(3S)-oxolan-3-yl]-5,6,7,8-tetrahydro-4H-pyrazolo[1,5-a]pyrrolo[3,4-d]pyrimidin-4-yl}acetamide], the IC50 stood at 24 nM on human P2X3 receptor [1] and 1350 nM on human P2X2/3 receptors.

Consider `COC[C@H](C)N1Cc2c(n(CC(=O)Nc3ccc(F)cn3)c3cc(-c4ccc(C)cn4)nn3c2=O)C1=O` [Example 162], for which the IC50 stood at 6 nM on human P2X3 receptor [1] and 1200 nM at human P2X2/3 receptors.

In the case of `COC[C@H](C)N1Cc2c(n(CC(=O)Nc3ccc(F)cn3)c3cc(-c4ncccc4C)nn3c2=O)C1=O` [Example 164], the IC50 on human P2X3 receptor [1] came out at 20 nM; at human P2X2/3 receptors it was 3700 nM.

For `CC(C)N1Cc2c(n(CC(=O)Nc3ccc(F)cn3)c3cc(-c4ccc(F)cn4)nn3c2=O)C1=O` [Example 165], the results for the IC50 on human P2X3 receptor [1] and on human P2X2/3 receptors were 13 nM and 1460 nM, respectively.

`CC(C)N1Cc2c(n(CC(=O)Nc3ccc(F)cn3)c3cc(C(=O)Nc4ccccn4)nn3c2=O)C1=O` [Example 201]: the IC50 was 37 nM at human P2X3 receptor [1] and 3870 nM at human P2X2/3 receptors.

Consider `CC(C)N1Cc2c(n(CC(=O)Nc3ccc(F)cn3)c3cc(C(=O)Nc4c(F)cccc4F)nn3c2=O)C1=O` [Example 205], for which the values for the IC50 at human P2X3 receptor [1] and on human P2X2/3 receptors were 17 nM and 5000 nM, respectively.

`CC(C)N1Cc2c(n(CC(=O)Nc3ccc(F)cn3)c3cc(C(=O)Nc4cccnc4)nn3c2=O)C1=O` [Example 207]: the IC50 was determined as 17 nM on human P2X3 receptor [1] and 2680 nM on human P2X2/3 receptors.

As to `COC[C@H](C)N1Cc2c(n(CC(=O)Nc3ccc(F)cn3)c3cc(C(=O)N(C)c4ccccn4)nn3c2=O)C1=O` [Example 214], the IC50 stood at 22 nM on human P2X3 receptor [1] and 6450 nM on human P2X2/3 receptors.

On to `COC[C@H](C)N1Cc2c(n(CC(=O)Nc3ccc(F)cn3)c3cc(C(=O)Nc4cccnn4)nn3c2=O)C1=O` [Example 216], for which the IC50 on human P2X3 receptor [1] worked out at 20 nM; on human P2X2/3 receptors it was 5600 nM.

As for `COC[C@H](C)N1Cc2c(n(CC(=O)Nc3ccc(F)cn3)c3cc(C(=O)N(C)Cc4cccnc4)nn3c2=O)C1=O` [Example 218], the IC50 at human P2X3 receptor [1] worked out at 15 nM; on human P2X2/3 receptors, 11500 nM.

On to `O=C(Cn1c2c(c(=O)n3nc(C(=O)Nc4ccccc4F)cc13)CN(Cc1ccccn1)C2=O)Nc1ccc(F)cn1` [Example 222], for which the IC50 on human P2X3 receptor [1] came out at 15 nM; at human P2X2/3 receptors it was 1350 nM.
